Experimental findings from patent publication US20240336574A1 (LATIGO BIOTHERAPEUTICS, INC., priority 2021, published 2024) are described below.

Where two headings read alike, the source gives them in different places. Where only a bound is given, the exact number is not on record here.

The experiment addresses T1, recombinant human NaV1.8 stably transfected HEK cells (Homo sapiens, UniProt Q9Y5Y9).
T1 construct: expressed in transfected cells; host or cells: HEK cells, stably transfected
Nature of the experiment: Compound profiling on NaV1.8, human NaV1.8 cell line, SyncroPatch384PE automated patch clamp assay (Example 102, first set of compounds, Table 16). Type of experiment: cell-based. The conditions noted are these: human NaV1.8 HEK cells, Table 16 (first set of compounds). As to the method: Compound Profiling on NaV1.8—Human NaV1.8 Cell Line—SyncroPatch384PE Assay
Compounds were tested on recombinant human NaV1.8 stably transfected HEK cells using the SyncroPatch384PE system, an automated patch clamp device. Cells were cultured at 37° C./5% CO2 in DMEM medium supplemented with GlutaMAX I, NEAA 1%, FBS 10% and seeded in T175 flasks. Cells were cultured at 30° C. one day prior to recording sodium currents. On the day of the recordings, cells were detached with 0.05% Trypsin-EDTA, resuspended in serum free DMEM medium and placed into the SyncroPatch384PE 6° C. pre-cooled cell hotel and shaken at 200 rpm. Intracellular solution (IC) contained, in mM: 10, CsCl; 110, CsF; 20, EGTA; 10, HEPES. Extracellular solution (EC) contained, in mM: 140, NaCl; 4, KCl; 5, Glucose; 10, HEPES; 2, CaCl2; 1, MgCl2. Washing solution contained, in mM: 40, NMDG; 100, NaCl; 4, KCl; 10, Glucose; 10, HEPES; 5, CaCl2; 1, MgCl2.
Compounds were tested in triplicate in 0.1% DMSO and 0.030% Pluronic Acid. Compounds were diluted 1:3 in EC solution to create a 10-point concentration response curve, spanning a final concentration range from 20-0.001 μM in the assay plate. Each plate contained tetracaine and another tool compound as positive controls. Up to 8 compounds were tested on one plate. 250 μM tetracaine and 0.1% DMSO were used as high and low controls, respectively. Whole cell patch clamp recordings were conducted according to Nanion's standard procedure for SyncroPatch384PE®. Cells were held at a holding potential of −120 mV. A depolarization step to 10 mV for 30 ms was applied (P1 measurement), followed by a hyperpolarization step to −100 mV for 100 ms. An inactivation step at −40 mV for 10 sec was applied before stepping to −100 mV for 20 ms, followed by a step to 10 mV for 30 ms (P2 measurement) and then back to −100 mV for 30 ms. Sweep interval was 15 sec with a sampling rate of 10 kHz. Following establishment of the whole-cell configuration in EC, two washing steps with reference buffer were performed to stabilize the baseline. Compounds were then applied by the SynchroPatch into each well and the current was recorded for five minutes in EC, followed by application of tetracaine to achieve full block at the end of the experiment. The potency of the compounds was assessed on two read-outs, resting state block (P1 measurement) or inactivated state block (P2 measurement) to obtain IC50 values. Values were normalized to high (tetracaine) and low (DMSO) controls. The IC50 values are listed in Table 16 as follows: “A” represents an IC50 less than or equal to 20 nM, “B” represents an IC50 greater than 20 nM to less than or equal to 40 nM, “C” represents an IC50 greater than 40 nM to less than or equal to 200 nM, “D” represents an IC50 greater than 200 nM to less than or equal to 500 nM.
On the technique in general: In patch-clamp work, channel activity is measured electrically.

The mark [1] stands for this setting: inactivated state block (P2 measurement), read-out: P2IC50.
Where [2] appears, read: resting state block (P1 measurement), read-out: P1IC50.

T1 sequence (Q9Y5Y9 whole entry): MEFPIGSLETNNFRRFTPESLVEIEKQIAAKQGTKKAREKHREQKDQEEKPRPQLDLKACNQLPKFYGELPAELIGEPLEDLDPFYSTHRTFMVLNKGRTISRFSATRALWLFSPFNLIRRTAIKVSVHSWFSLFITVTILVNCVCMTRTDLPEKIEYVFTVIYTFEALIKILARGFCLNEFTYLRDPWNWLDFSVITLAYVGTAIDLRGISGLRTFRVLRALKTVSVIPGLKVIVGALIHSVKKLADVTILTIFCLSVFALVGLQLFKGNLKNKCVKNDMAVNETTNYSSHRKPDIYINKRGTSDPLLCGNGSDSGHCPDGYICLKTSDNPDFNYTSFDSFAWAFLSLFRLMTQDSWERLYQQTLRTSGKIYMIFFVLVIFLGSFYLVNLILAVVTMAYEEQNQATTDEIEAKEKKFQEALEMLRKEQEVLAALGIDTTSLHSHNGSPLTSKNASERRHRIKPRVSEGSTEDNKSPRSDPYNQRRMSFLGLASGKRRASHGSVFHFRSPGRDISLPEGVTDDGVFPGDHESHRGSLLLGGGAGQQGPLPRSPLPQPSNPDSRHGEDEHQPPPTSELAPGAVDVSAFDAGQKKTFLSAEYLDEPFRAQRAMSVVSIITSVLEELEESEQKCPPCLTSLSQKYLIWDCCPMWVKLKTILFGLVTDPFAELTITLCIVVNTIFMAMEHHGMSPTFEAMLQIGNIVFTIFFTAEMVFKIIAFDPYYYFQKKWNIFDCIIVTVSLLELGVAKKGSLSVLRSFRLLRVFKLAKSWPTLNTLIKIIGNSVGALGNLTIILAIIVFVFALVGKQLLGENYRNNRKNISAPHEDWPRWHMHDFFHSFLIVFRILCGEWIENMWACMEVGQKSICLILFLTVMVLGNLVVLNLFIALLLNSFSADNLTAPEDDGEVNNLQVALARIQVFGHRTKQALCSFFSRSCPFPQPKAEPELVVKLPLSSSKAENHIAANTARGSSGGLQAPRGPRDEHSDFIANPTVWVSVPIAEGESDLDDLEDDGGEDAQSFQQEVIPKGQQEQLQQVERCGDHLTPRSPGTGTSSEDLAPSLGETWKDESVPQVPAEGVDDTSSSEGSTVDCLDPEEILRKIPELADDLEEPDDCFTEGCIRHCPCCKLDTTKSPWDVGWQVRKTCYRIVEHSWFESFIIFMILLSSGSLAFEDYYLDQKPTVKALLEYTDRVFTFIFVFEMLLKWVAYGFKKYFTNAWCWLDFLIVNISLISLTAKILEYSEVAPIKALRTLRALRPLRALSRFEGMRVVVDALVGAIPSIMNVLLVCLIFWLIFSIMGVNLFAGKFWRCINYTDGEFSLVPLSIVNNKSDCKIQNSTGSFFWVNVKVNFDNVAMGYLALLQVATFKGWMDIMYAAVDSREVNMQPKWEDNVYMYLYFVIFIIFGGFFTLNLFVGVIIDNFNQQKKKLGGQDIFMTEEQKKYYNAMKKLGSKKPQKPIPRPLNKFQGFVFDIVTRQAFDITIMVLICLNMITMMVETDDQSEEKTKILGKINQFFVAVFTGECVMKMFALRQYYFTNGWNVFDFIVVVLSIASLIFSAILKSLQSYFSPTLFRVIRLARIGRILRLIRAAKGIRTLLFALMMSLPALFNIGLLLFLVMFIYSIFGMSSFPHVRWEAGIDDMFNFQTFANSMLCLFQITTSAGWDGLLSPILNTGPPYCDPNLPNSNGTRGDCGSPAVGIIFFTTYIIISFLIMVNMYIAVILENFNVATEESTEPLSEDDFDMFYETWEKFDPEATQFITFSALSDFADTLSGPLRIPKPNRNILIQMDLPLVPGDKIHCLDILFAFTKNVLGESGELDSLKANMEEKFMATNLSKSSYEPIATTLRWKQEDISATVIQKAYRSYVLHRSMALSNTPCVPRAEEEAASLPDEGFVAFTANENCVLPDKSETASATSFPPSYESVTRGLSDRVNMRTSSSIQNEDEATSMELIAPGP

For `Cc1nc(Br)ccc1Oc1nnc(C(F)(F)F)c(C)c1C(=O)Nc1cccc(S(C)(=O)=O)c1` [Compound 1469, 3-[(6-bromo-2-methylpyridin-3-yl)oxy]-N-(3-methanesulfonylphenyl)-5-methyl-6-(trifluoromethyl)pyridazine-4-carboxamide], the IC50 was ≤ 20 nM under setting [1] and ≤ 20 nM under setting [2]. On to `CC(C)Oc1ccc(Oc2ncc(C(F)(F)F)cc2C(=O)Nc2ccc(C(N)=O)cc2)c(F)c1F` [Compound 1711], for which the IC50 was in the range of 20 to 40 nM under setting [1] and 20 to 40 nM under setting [2]. As to `COc1cc(C#N)ccc1Oc1nccc(C(F)(F)F)c1C(=O)Nc1cccc(S(C)(=N)=O)c1` (stereo not drawn) [Compound 1653], the IC50 under setting [1] was in the range of 40 to 200 nM and the IC50 under setting [2] lay within 40 to 200 nM. Regarding `Cc1cc(F)ccc1Oc1nnc(C(F)(F)F)c(NC2CC2)c1C(=O)Nc1cccc([S@@](C)(=N)=O)c1` [Compound 1522, (S)-5-(cyclopropylamino)-3-(4-fluoro-2-methylphenoxy)-N-(3-(S-methylsulfonimidoyl)phenyl)-6-(trifluoromethyl)pyridazine-4-carboxamide], the IC50 is 200 to 500 nM under setting [1] and 200 to 500 nM under setting [2].

In the case of `Cc1cc(F)ccc1Oc1nnc(C(F)(F)F)c(N2CCOCC2)c1C(=O)Nc1cccc([S@@](C)(=N)=O)c1` [Compound 1524, (S)-3-(4-fluoro-2-methylphenoxy)-N-(3-(S-methylsulfonimidoyl)phenyl)-5-morpholino-6-(trifluoromethyl)pyridazine-4-carboxamide], the IC50 lay within 200 to 500 nM under setting [1] and 200 to 500 nM under setting [2]. Consider `COc1cc(F)ccc1Oc1nnc(C(F)(F)F)c(OC)c1C(=O)Nc1cccc([S@@](C)(=N)=O)c1` [Compound 1517, (S)-3-(4-fluoro-2-methoxyphenoxy)-5-methoxy-N-(3-(S-methylsulfonimidoyl)phenyl)-6-(trifluoromethyl)pyridazine-4-carboxamide], for which the IC50 reads like this: under setting [1], 20 to 40 nM; under setting [2], ≤ 20 nM. With `COc1c(Oc2ncc(C(F)(F)F)cc2C(=O)Nc2cccc(S(C)(=N)=O)c2)ccc(F)c1Cl` (stereo not drawn) [Compound 1618], the IC50 reads like this: under setting [1], ≤ 20 nM; under setting [2], ≤ 20 nM. In the case of `COc1cc(C#N)ccc1Oc1nnc(-c2ccccc2F)c(C)c1C(=O)Nc1cccc(S(C)(=N)=O)c1` (stereo not drawn) [Compound 1452, 3-(4-cyano-2-methoxy-phenoxy)-6-(2-fluorophenyl)-5-methyl-N-[3-(methylsulfonimidoyl)phenyl]pyridazine-4-carboxamide], the IC50 reads like this: under setting [1], 40 to 200 nM; under setting [2], 40 to 200 nM. `CS(=N)(=O)c1cccc(NC(=O)c2cc(C(F)(F)F)cnc2OC2CC(C(F)(F)F)C2)c1` (mixture of isomers) [Compound 1666]: the IC50 by setting is: under setting [1], 40 to 200 nM; under setting [2], 40 to 200 nM.

On to `COc1c(Oc2nnc3c(c2C(=O)Nc2cccc(S(C)(=N)=O)c2)CCC3)ccc(F)c1F` (stereo not drawn) [Compound 1516, 3-(3,4-difluoro-2-methoxyphenoxy)-N-{3-[imino(methyl)oxo-λ^6-sulfanyl]phenyl}-5H,6H,7H-cyclopenta[c]pyridazine-4-carboxamide], for which the IC50 was 200 to 500 nM under setting [1] and 200 to 500 nM under setting [2]. Turning to `Cc1c(Oc2ncc(C(F)(F)F)cc2C(=O)Nc2cccc(S(C)(=N)=O)c2)ccc(OC(F)(F)F)c1F` (stereo not drawn) [Compound 1712], the IC50 by setting is: under setting [1], ≤ 20 nM; under setting [2], ≤ 20 nM. As to `COc1cc(C#N)ccc1Oc1nnc(-c2cnc(C)nc2)c(C)c1C(=O)Nc1cccc(S(C)(=N)=O)c1` (stereo not drawn) [Compound 1457, 3-(4-cyano-2-methoxy-phenoxy)-5-methyl-6-(2-methylpyrimidin-5-yl)-N-[3-(methylsulfonimidoyl)phenyl]pyridazine-4-carboxamide], the IC50 runs as follows: under setting [1], 200 to 500 nM; under setting [2], 200 to 500 nM.

Take `COc1ncc(Oc2ncc(C(F)(F)F)cc2C(=O)Nc2cccc(C(N)=O)c2)cc1F` [Compound 1698]: the IC50 is, setting by setting: under setting [1], 200 to 500 nM; under setting [2], 200 to 500 nM.

On to `Cc1c(C(F)(F)F)nnc(Oc2ccc(OC(F)(F)F)c(F)c2F)c1C(=O)Nc1cccc(S(C)(=N)=O)c1` (single isomer, unassigned) [Compound 1478, 3-[2,3-difluoro-4-(trifluoromethoxy)phenoxy]-5-methyl-N-[3-(methylsulfonimidoyl)phenyl]-6-(trifluoromethyl)pyridazine-4-carboxamide], for which the IC50 under setting [2] was ≤ 20 nM.

Turning to `Cc1cc(F)ccc1Oc1nncc(C)c1C(=O)Nc1cccc(S(C)(=N)=O)c1` (stereo not drawn) [Compound 1553, 3-(4-fluoro-2-methyl-phenoxy)-5-methyl-N-[3-(methylsulfonimidoyl)phenyl]pyridazine-4-carboxamide], the IC50 is, setting by setting: under setting [1], 200 to 500 nM; under setting [2], 200 to 500 nM.

Take `COc1cc(C#N)ccc1Oc1nnc(-c2ccc(C)cc2)c(C)c1C(=O)Nc1cccc([S@@](C)(=N)=O)c1` [Compound 1530, 3-(4-cyano-2-methoxyphenoxy)-N-{3-[(S)-imino(methyl)oxo-λ^6-sulfanyl]phenyl}-5-methyl-6-(4-methylphenyl)pyridazine-4-carboxamide]: the IC50 under setting [1] lay within 40 to 200 nM and the IC50 under setting [2] fell in the range of 40 to 200 nM. As to `COc1ccc(-c2nnc(Oc3ccc(C#N)cc3OC)c(C(=O)Nc3cccc([S@](C)(=N)=O)c3)c2C)cn1` [Compound 1733, (R)-3-(4-cyano-2-methoxyphenoxy)-6-(6-methoxypyridin-3-yl)-5-methyl-N-(3-(S-methylsulfonimidoyl)phenyl)pyridazine-4-carboxamide], the IC50 is, setting by setting: under setting [1], 40 to 200 nM; under setting [2], 200 to 500 nM. For `CS(=N)(=O)c1cccc(NC(=O)c2cc(C(F)(F)F)cnc2Oc2ccc(OCc3ccccc3)cc2)c1` (stereo not drawn) [Compound 1587], in that order: 40 to 200 nM and 40 to 200 nM. Regarding `Cc1cc(F)ccc1Oc1nnc(C(F)(F)F)c(C)c1C(=O)Nc1ccc(C(N)=O)cc1` [Compound 1416], the IC50 under setting [1] lay in the range of 40 to 200 nM and the IC50 under setting [2] was in the range of 40 to 200 nM.

In the case of `NC(=O)c1ccc(NC(=O)c2cc(C(F)(F)F)cnc2OC2CC(C(F)(F)F)C2)cc1` (mixture of isomers) [Compound 1670], the IC50 runs as follows: under setting [1], 200 to 500 nM; under setting [2], 200 to 500 nM.

As for `Cc1c(C(F)(F)F)nnc(Oc2ccc(OC(C)C)c(F)c2F)c1C(=O)Nc1cccc(S(C)(=N)=O)c1` (stereo not drawn) [Compound 1501, 3-[2,3-difluoro-4-(propan-2-yloxy)phenoxy]-N-{3-[imino(methyl)oxo-λ^6-sulfanyl]phenyl}-5-methyl-6-(trifluoromethyl)pyridazine-4-carboxamide], the IC50 was ≤ 20 nM under setting [1] and ≤ 20 nM under setting [2].

In the case of `CS(=N)(=O)c1cccc(NC(=O)c2cc(C(F)(F)F)cnc2Oc2cccnc2OC(F)(F)F)c1` (single isomer, unassigned) [Compound 1642], the IC50 is ≤ 20 nM under setting [1] and ≤ 20 nM under setting [2]. Take `CC#Cc1nnc(Oc2ccc(F)cc2C)c(C(=O)Nc2cccc(S(C)(=N)=O)c2)c1C` (stereo not drawn) [Compound 1434, 3-(4-Fluoro-2-methylphenoxy)-5-methyl-N-(3-(S-methylsulfonimidoyl)phenyl)-6-(prop-1-yn-1-yl)pyridazine-4-carboxamide]: the IC50 is, setting by setting: under setting [1], 200 to 500 nM; under setting [2], 200 to 500 nM.

With `COc1cc(C#N)ccc1Oc1nnc(C(F)(F)F)c(C)c1C(=O)Nc1ccc(C(N)=O)nc1` [Compound 1539, N-(6-carbamoyl-3-pyridyl)-3-(4-cyano-2-methoxy-phenoxy)-5-methyl-6-(trifluoromethyl)pyridazine-4-carboxamide], the IC50 is, setting by setting: under setting [1], 20 to 40 nM; under setting [2], 40 to 200 nM.

As for `Cc1cc(C(F)(F)F)c(C)cc1Oc1ncc(C(F)(F)F)cc1C(=O)Nc1cccc(S(C)(=O)=O)c1` [Compound 1616], the IC50 reads like this: under setting [1], 200 to 500 nM; under setting [2], 200 to 500 nM. On to `COc1cc(C#N)ccc1Oc1nnc(C(F)(F)F)c(C)c1C(=O)Nc1ccc[n+]([O-])c1` [Compound 1544, 3-(4-cyano-2-methoxy-phenoxy)-5-methyl-N-(1-oxidopyridin-1-ium-3-yl)-6-(trifluoromethyl)pyridazine-4-carboxamide], for which the IC50 was 20 to 40 nM under setting [1] and 40 to 200 nM under setting [2].
